Test results published in US11034656B2, “Maleate salts of (E)-N-(3-cyano-7-ethoxy-4-((4-phenoxyphenyl)amino) quinolin-6-yl)-4-(dimethylamino)but-2-enamide and crystalline forms thereof” (TELIGENE LTD, priority 2017, dated 2021).
Counter-ions that a name gives are not always drawn. Like-named read-outs stand apart in the source and are kept apart here.

What was measured:
Hygroscopicity test = assay type: physicochemical; details: 25° C.±1° C., relative humidity 80%±2%, 24 hours, (m3−m2)/(m2−m1)*100%
Description: Hygroscopicity tests of ((E)-N-(3-cyano-7-ethoxy-4-((4-phenoxyphenyl)amino) quinolin-6-yl)-4-(dimethylamino)but-2-enamide in different acid salts have been carried out by the following method:
Take the dry glass weighing bottle which has a plug (outer diameter is 50 mm, high is 15 mm); placed in a suitable 25° C.±1° C. constant temperature dryer (place a saturated solution of ammonium chloride or ammonium sulfate in the lower part) or artificial climate box (set the temperature to 25° C.±1° C. and the relative humidity to 80%±2%) one day before the test, accurately weighting its weight (m1).
Take appropriate amount of the test sample and lay it in the above weighing bottle, the thickness of the test sample is generally 1 mm, accurately weighting its weight (m2).
Open the weighing bottle and place it at the constant temperature and humidity as above-mentioned for 24 hours with its plug.
Accurately weighting its weight (m3), including the weighing bottle and its plug. Percentage of weight gain=(m3−m2)/(m2−m1)*100%

Crystallinity by PXRD = assay type: physicochemical
Description: PXRD is performed in Rigaku UltimaIV diffractometer, copper target, λ=1.5406 A; working voltage 40 kv; working current: 40 Ma; scan speed: 60.000 deg./min; scan range: 4.0000->60.0000 deg.

[1] = Bioavailability in SD rats (I.V. and PO); assay type: in vivo; details: rat, blood, male, I.V. 5 mg/kg, PO 10 mg/kg via gavage

CCOc1cc2ncc(C#N)c(Nc3ccc(Oc4ccccc4)cc3)c2cc1NC(=O)/C=C/CN(C)C [Citrate salt, (E)-N-(3-cyano-7-ethoxy-4-((4-phenoxyphenyl)amino)quinolin-6-yl)-4-(dimethylamino)but-2-enamide Citrate]
weight gain (%) (Hygroscopicity test; Citrate): 27.04%
Crystallinity by PXRD (Crystallinity by PXRD; Citrate): crystalline
bioavailability [1]: 36.7%

CCOc1cc2ncc(C#N)c(Nc3ccc(Oc4ccccc4)cc3)c2cc1NC(=O)/C=C/CN(C)C [Hydrochloride acid salt, (E)-N-(3-cyano-7-ethoxy-4-((4-phenoxyphenyl)amino)quinolin-6-yl)-4-(dimethylamino)but-2-enamide Hydrochloride]
weight gain (%) (Hygroscopicity test; Hydrochloride): 46.67%
Crystallinity by PXRD (Crystallinity by PXRD): amorphous

CCOc1cc2ncc(C#N)c(Nc3ccc(Oc4ccccc4)cc3)c2cc1NC(=O)/C=C/CN(C)C [L-malate salt, (E)-N-(3-cyano-7-ethoxy-4-((4-phenoxyphenyl)amino)quinolin-6-yl)-4-(dimethylamino)but-2-enamide Malate]
weight gain (%) (Hygroscopicity test; Malate): 16.36%
Crystallinity by PXRD (Crystallinity by PXRD; Malate): amorphous

CCOc1cc2ncc(C#N)c(Nc3ccc(Oc4ccccc4)cc3)c2cc1NC(=O)/C=C/CN(C)C.O=C(O)/C=C\C(=O)O [Maleate salt, (E)-N-(3-cyano-7-ethoxy-4-((4-phenoxyphenyl)amino)quinolin-6-yl)-4-(dimethylamino)but-2-enamide Maleate]
weight gain (%) (Hygroscopicity test): 0.2%
Crystallinity by PXRD (Crystallinity by PXRD): crytalline
bioavailability [1]: 49.6%

CCOc1cc2ncc(C#N)c(Nc3ccc(Oc4ccccc4)cc3)c2cc1NC(=O)/C=C/CN(C)C [Sulphate salt, (E)-N-(3-cyano-7-ethoxy-4-((4-phenoxyphenyl)amino)quinolin-6-yl)-4-(dimethylamino)but-2-enamide Sulfate]
weight gain (%) (Hygroscopicity test; Sulfate): 36.13%
